From patent publication EP3227262B1, “SULFIDE ALKYL AND PYRIDYL REVERSE SULFONAMIDE COMPOUNDS FOR HBV TREATMENT” (Novira Therapeutics Inc., priority 2014, dated 2016) come the findings set out here.

In the assay the test system is HBV. Kind of assay: Inhibition of HBV replication dot-blot assay in HBV-producing hepatoma cell line. It is filed as cell-based. The note with it: Hepatitis B virus, 144 h; activity in Dot-Blot assay; HepG2-2.2.15 cells; reduction in HBV DNA levels, six days. The protocol: Compounds active in the HBV assembly assay are tested for their activity and toxicity in cellular assay. In the first anti-viral assay, the ability of compounds to inhibit HBV replication in an HBV-producing hepatoma cell line using the dot-blot method is evaluated.
(§1) Briefly, confluent monolayers of HepG2-2.2.15 cells are incubated with complete medium containing various concentrations of a test compound. Three days later, the culture medium is replaced with fresh medium containing the appropriately diluted test compound. Six days following the initial administration of the test compound, the cell culture supernatant is collected, and cell lysis is performed. The samples are applied onto Nylos membranes and DNA is immobilized to the membrane by UV cross-linking. After pre-hybridization, the HBV probe is added and the hybridization is performed overnight. The membranes are exposed to the KODAK films; antiviral activity is calculated from the reduction in HBV DNA levels (EC50). The EC50 for antiviral activity is calculated from the dose response curves of active compounds. Assay performance over time is monitored by the use of the standard positive control compounds ETV, BAY 41-4109, and HAP-1.
Selected compounds are tested for their activity and toxicity in cellular assay. In the first anti-viral assay, the ability of compounds to inhibit HBV replication in an HBV-producing hepatoma cell line using the dot-blot method is evaluated.
as §1, with “Confluent monolayers” for “Briefly, confluent monolayers”, “lysis was” for “lysis is”
The EC50 is the midpoint of the concentration-response curve. As to `O=C(Nc1ccc(F)c(Cl)c1)c1cccc(SC2CCC(O)CC2)c1` (mixture of isomers) [Compound 34, (cis/trans)-N-(3-Chloro-4-fluorophenyl)-3-((4-hydroxycyclohexyl)thio)benzamide], the half-maximal effective concentration (EC50) is < 10 µM.

With `O=C(Nc1ccc(F)c(Cl)c1)c1ccc(F)c(SC2CC(C(=O)O)C2)c1` (mixture of isomers) [Compound 58, (cis/trans)-3-((5-((3-Chloro-4-fluorophenyl)carbamoyl)-2-fluorophenyl)thio)cyclobutanecarboxylic acid], the half-maximal effective concentration (EC50) is < 10 µM. Turning to `O=C(Nc1ccc(F)c(F)c1)c1ccc(F)c(SC2CC(C(=O)O)C2)c1` (mixture of isomers) [Compound 59, (cis/trans)-3-((5-((3,4-Difluorophenyl)carbamoyl)-2-fluorophenyl)thio)cyclobutanecarboxylic acid], the EC50 is < 10 µM.

For the compound `O=C(Nc1ccc(F)c(Cl)c1)c1ccc(F)c(SC2CCC(C(=O)O)CC2)c1` (mixture of isomers) [Compound 61, (cis/trans)-4-((5-((3-Chloro-4-fluorophenyl)carbamoyl)-2-fluorophenyl)thio)cyclohexanecarboxylic acid], the EC50 was < 10 µM. Next, `COc1ccc(C(=O)Nc2ccc(F)c(Cl)c2)cc1SC1CCC(O)CC1` (mixture of isomers) [Compound 70, (cis/trans)-N-(3-Chloro-4-fluorophenyl)-3-((4-hydroxycyclohexyl)thio)-4-methoxybenzamide]: < 10 µM; `O=C(Nc1ccc(F)c(Cl)c1)c1ccc(Cl)c(SC2CCC(O)CC2)c1` (mixture of isomers) [Compound 75, (cis/trans)-4-Chloro-N-(3-chloro-4-fluorophenyl)-3-((4-hydroxycyclohexyl)thio)benzamide]: < 10 µM; `Cc1ccc(C(=O)Nc2cc(F)c(F)c(F)c2)cc1SC1CCC(O)CC1` (mixture of isomers) [Compound 77, (cis/trans)-3-((4-Hydroxycyclohexyl)thio)-4-methyl-N-(3,4,5-trifluorophenyl)benzamide]: < 10 µM.

Turning to `O=C(Nc1cc(F)c(F)c(F)c1)c1ccc(Cl)c(SC2CCC(O)CC2)c1` (mixture of isomers) [Compound 81, (cis/trans)-4-Chloro-3-((4-hydroxycyclohexyl)thio)-N-(3,4,5-trifluorophenyl)benzamide], the EC50 is < 10 µM. Next, `COc1ccc(C(=O)Nc2cc(F)c(F)c(F)c2)cc1SC1CCC(O)CC1` (mixture of isomers) [Compound 84, (cis/trans)-3-((4-Hydroxycyclohexyl)thio)-4-methoxy-N-(3,4,5-trifluorophenyl)benzamide]: < 10 µM; `O=C(Nc1ccc(F)c(F)c1)c1ccc(Cl)c(SC2CCC(O)CC2)c1` (mixture of isomers) [Compound 87, (cis/trans)-4-Chloro-N-(3,4-difluorophenyl)-3-((4-hydroxycyclohexyl)thio)benzamide]: < 10 µM. Next, `COc1ccc(C(=O)Nc2ccc(F)c(F)c2)cc1SC1CCC(O)CC1` (mixture of isomers) [Compound 89, (cis/trans)-N-(3,4-Difluorophenyl)-3-((4-hydroxycyclohexyl)thio)-4-methoxybenzamide]: < 10 µM; `N#Cc1ccc(C(=O)Nc2ccc(F)c(F)c2)cc1SC1CCC(O)CC1` (mixture of isomers) [Compound 93, (cis/trans)-4-Cyano-N-(3,4-difluorophenyl)-3-((4-hydroxycyclohexyl)thio)benzamide]: < 10 µM; `N#Cc1ccc(C(=O)Nc2ccc(F)c(Cl)c2)cc1SC1CCC(O)CC1` (mixture of isomers) [Compound 95, (cis/trans)-N-(3-Chloro-4-fluorophenyl)-4-cyano-3-((4-hydroxycyclohexyl)thio)benzamide]: < 10 µM. The result for `CN(C)C(=O)C1CCC(Sc2cc(C(=O)Nc3cc(F)c(F)c(F)c3)ccc2F)CC1` (mixture of isomers) [Compound 103, (cis/trans)-3-((4-(Dimethylcarbamoyl)cyclohexyl)thio)-4-fluoro-N-(3,4,5-trifluorophenyl)benzamide] reads < 10 µM; that for `O=C(Nc1cc(F)c(F)c(F)c1)c1ccc(F)c(SC2CCC(C(=O)N3CCCCC3)CC2)c1` (mixture of isomers) [Compound 104, (cis/trans)-4-Fluoro-3-((4-(piperidine-1-carbonyl)cyclohexyl)thio)-N-(3,4,5-trifluorophenyl)benzamide], < 10 µM. Consider `O=C(O)CC1CCC(Sc2cc(C(=O)Nc3ccc(F)c(Cl)c3)ccc2F)CC1` (mixture of isomers) [Compound 106, (cis/trans)-2-(4-((5-((3-Chloro-4-fluorophenyl)carbamoyl)-2-fluorophenyl)thio)cyclohexyl)acetic acid], for which the EC50 is < 10 µM. The result for `O=C(O)CC1CCC(Sc2cc(C(=O)Nc3cc(F)c(F)c(F)c3)ccc2F)CC1` (mixture of isomers) [Compound 107, (cis/trans)-2-(4-((5-((3,4,5-trifluorophenyl)carbamoyl)-2-fluorophenyl)thio)cyclohexyl)acetic acid] reads < 10 µM; that for `O=C(Nc1cc(F)c(F)c(F)c1)c1ccc(F)c(SC2CCC(C(=O)N3CCNCC3)CC2)c1` (mixture of isomers) [Compound 108, (cis/trans)-4-Fluoro-3-((4-(piperazine-1-carbonyl)cyclohexyl)thio)-N-(3,4,5-trifluorophenyl)benzamide], < 10 µM; that for `O=C(Nc1ccc(F)c(Cl)c1)c1ccc(F)c(SCC2CCC(C(=O)O)CC2)c1` (mixture of isomers) [Compound 109, (cis/trans)-4-(((5-((3-Chloro-4-fluorophenyl)carbamoyl)-2-fluorophenyl)thio)methyl)cyclohexanecarboxylic acid], < 10 µM. The result for `O=C(Nc1cc(F)c(F)c(F)c1)c1ccc(F)c(SCC2CCC(C(=O)O)CC2)c1` (mixture of isomers) [Compound 110, (cis/trans)-4-(((5-((3,4,5-trifluorophenyl)carbamoyl)-2-fluorophenyl)thio)methyl)cyclohexanecarboxylic acid] reads < 10 µM; that for `O=C1CCCCC(Sc2cc(C(=O)Nc3cc(F)c(F)c(F)c3)ccc2F)C1` (racemic) [Compound 12, (±)-4-Fluoro-3-((3-oxocydoheptyl)thio)-N-(3,4,5-trifluorophenyl)benzamide], < 10 µM; that for `O=C1CCCCC(Sc2cc(C(=O)Nc3ccc(F)c(Cl)c3)ccc2F)C1` (racemic) [Compound 13, (±)-N-(3-Chloro-4-fluorophenyl)-4-fluoro-3-((3-oxocycloheptyl)thio)benzamide], < 10 µM.

For the compound `O=C(Nc1cc(F)c(F)c(F)c1)c1ccc(F)c(S[C@H]2CCCC[C@@H](O)C2)c1` (racemic) [Compound 14A, (±)-4-Fluoro-3-(((1S,3R)-3-hydroxycycloheptyl)thio)-N-(3,4,5-trifluorophenyl)benzamide], the 50% effective concentration (EC50) was < 10 µM. Regarding `O=C(Nc1cc(F)c(F)c(F)c1)c1ccc(F)c(S[C@@H]2CCCC[C@@H](O)C2)c1` (racemic) [Compound 14B, (±)-4-Fluoro-3-(((1R,3R)-3-hydroxycycloheptyl)thio)-N-(3,4,5-trifluorophenyl)benzamide], the EC50 is < 10 µM. Next, `O=C(Nc1cc(F)c(F)c(F)c1)c1ccc(F)c(SC2CCCCC(F)C2)c1` (racemic) [Compound 15, (±)-4-Fluoro-3-((3-fluorocycloheptyl)thio)-N-(3,4,5-trifluorophenyl)benzamide]: < 10 µM; `O=C1CCCC(Sc2cc(C(=O)Nc3ccc(F)c(Cl)c3)ccc2F)C1` (racemic) [Compound 20, (±)N-(3-Chloro-4-fluorophenyl)-4-fluoro-3-((3-oxocyclohexyl)thio)benzamide]: < 10 µM; `O=C(Nc1ccc(F)c(Cl)c1)c1ccc(F)c(S[C@@H]2CCC[C@@H](O)C2)c1` (racemic) [Compound 21, (±)-N-(3-Chloro-4-fluorophenyl)-4-fluoro-3-(((1R,3R)-3-hydroxycyclohexyl)thio)benzamide]: < 10 µM. `O=C1CCC(Sc2cc(C(=O)Nc3ccc(F)c(Cl)c3)ccc2F)C1` (racemic) [Compound 22, (±)-N-(3-Chloro-4-fluorophenyl)-4-fluoro-3-((3-oxocyclopentyl)thio)benzamide]: the EC50 was < 10 µM. For the compound `O=C(Nc1ccc(F)c(Cl)c1)c1ccc(F)c(S[C@H]2CC[C@H](O)C2)c1` (racemic) [Compound 25, (±)-N-(3-Chloro-4-fluorophenyl)-4-fluoro-3-(((1S,3S)-3-hydroxycyclopentyl)thio)benzamide], the EC50 is < 10 µM.

In the case of `O=C(Nc1ccc(F)c(Cl)c1)c1ccc(F)c(SCC2CCOC2)c1` (racemic) [Compound 46, (±)-N-(3-Chloro-4-fluorophenyl)-4-fluoro-3-(((tetrahydrofuran-3-yl)methyl)thio)benzamide], the EC50 is < 10 µM.
